Data on nine compounds can be found in patent US6534516B1, “Androgen receptor modulator compounds and methods” (Ligand Pharmaceuticals Incorporated, priority 1996, dated 2003).

Read-outs that look alike come from different tables or passages of the source.

Experiment [1] deals with T1, human AR (Homo sapiens, UniProt P10275).
T1 construct: expressed in transfected cells; host or cells: CV-1 cells (African green monkey kidney fibroblasts)
T1 sequence (P10275 1-920): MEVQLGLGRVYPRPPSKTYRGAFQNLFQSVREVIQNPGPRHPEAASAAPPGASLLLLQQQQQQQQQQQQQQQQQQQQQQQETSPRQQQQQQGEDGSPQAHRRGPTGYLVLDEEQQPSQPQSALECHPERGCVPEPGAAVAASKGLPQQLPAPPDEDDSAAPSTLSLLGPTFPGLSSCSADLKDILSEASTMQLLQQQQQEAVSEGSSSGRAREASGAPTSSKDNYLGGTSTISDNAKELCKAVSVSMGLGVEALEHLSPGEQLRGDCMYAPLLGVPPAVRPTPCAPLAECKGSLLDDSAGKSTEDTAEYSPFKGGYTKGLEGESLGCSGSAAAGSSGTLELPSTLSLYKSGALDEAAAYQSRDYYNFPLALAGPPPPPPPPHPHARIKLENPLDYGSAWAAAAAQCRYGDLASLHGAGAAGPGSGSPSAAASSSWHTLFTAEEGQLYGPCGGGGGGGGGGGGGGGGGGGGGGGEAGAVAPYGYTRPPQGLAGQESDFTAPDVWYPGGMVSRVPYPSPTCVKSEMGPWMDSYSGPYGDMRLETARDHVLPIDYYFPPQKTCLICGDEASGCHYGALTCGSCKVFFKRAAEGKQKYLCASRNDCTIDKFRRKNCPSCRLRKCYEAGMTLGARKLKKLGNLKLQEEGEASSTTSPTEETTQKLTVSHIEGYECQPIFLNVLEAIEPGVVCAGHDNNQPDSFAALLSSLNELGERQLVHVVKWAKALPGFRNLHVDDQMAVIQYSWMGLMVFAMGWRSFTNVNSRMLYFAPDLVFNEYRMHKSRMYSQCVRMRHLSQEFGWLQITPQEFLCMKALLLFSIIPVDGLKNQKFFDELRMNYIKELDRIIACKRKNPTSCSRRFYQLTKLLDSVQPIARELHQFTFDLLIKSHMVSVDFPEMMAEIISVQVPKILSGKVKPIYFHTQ
Description: cell-based. The class given is cell-based. The note with it: for AR Antagonist CV-1 Cells Efficacy: antagonist mode, DHT at its EC50, % of maximal inhibition, na = not active; for IC50: read-out: AR Antagonist CV-1 Cells Potency; for EC50: read-out: AR Agonist CV-1 Cells Potency; for AR activity profile (in words): summary of Tables 1 and 2. The text has this:
The co-transfection assay provides a method for identifying functional agonists and partial agonists which mimic, or antagonists which inhibit, the effect of native hormones, and quantifying their activity for responsive IR proteins. In this regard, the co-transfection assay mimics an in vivo system in the laboratory. Importantly, activity in the co-transfection assay correlates very well with known in vivo activity, such that the co-transfection assay functions as a qualitative and quantitative predictor of a tested compounds in vivo pharmacology. See, e.g., T. Berger et al. 41 J. Steroid Biochem. Molec.
CV-1 cells (African green monkey kidney fibroblasts) were cultured in the presence of Dulbecco's Modified Eagle Medium (DMEM) supplemented with 10% charcoal resin-stripped fetal bovine serum then transferred to 96-well microtiter plates one day prior to transfection.
The reporter plasmid, MTV-LUC, contains the cDNA for firefly luciferase (LUC) under control of the mouse mammary tumor virus (MTV) long terminal repeat, a conditional promoter containing an androgen response element. See e.g., Berger et al. supra. In addition, pRS-β-Gal, coding for constitutive expression of E. coli β-galactosidase (β-Gal), was included as an internal control for evaluation of transfection efficiency and compound toxicity.
Three to four replicates were used for each sample.
After 40 hours, the cells were washed with PBS, lysed with a Triton X-100-based buffer and assayed for LUC and β-Gal activities using a luminometer or spectrophotometer, respectively. For each replicate, the normalized response (NR) was calculated as:
where β-Gal rate=β-Gal•1×10^−5/β-Gal incubation time.

Experiment [2] has as its target T1, human AR. Description: cell-based. Conditions: read-out: AR Binding Ki.
The subject of experiment [3] is immature castrated male rat. Description: Immature castrated male rat model with testosterone silastic implant, ventral prostate and seminal vesicle weights. The format is in vivo. Conditions: for ED50: Rattus norvegicus, 72 h; for effect on ventral prostate and seminal vesicle weights (in words): Tables 5 and 6. The text has this: The activity of selected compounds of the present invention as AR antagonists was *~ investigated in an immature castrated male rat model. A recognized test of the antiandrogen activity of a given compound, as described in L. G. Hershberger et al., 83 Proc. Soc. Exptl. […] Similar approaches have been used in the rat and in hamsters. […] Dermatol.
The basis of this assay is the fact that male sexual accessory organs, such as the prostate and seminal vesicles, play an important role in reproductive function. […] See F. Labrie et al., 16 Clin. Invest. […] However, this is not a major pathway since, in both animals and humans, castration without concomitant adrenalectomy leads to almost complete involution of the prostate and seminal vesicles. […] See M. C. […] Since the male sex organs are the tissues most responsive to modulation by androgen activity, this model is used to determine the androgen-dependent growth of the sex accessory organs in immature castrated rats.
Immature male rats (50-60 g, 21 day-old Sprague-Dawley, Harlan) were castrated under metofane anesthesia. […] As a negative control, a group of castrated animals received empty 10 mm silastic implants. Animal groups were dosed for 3 days by oral gavage as follows:
At the end of the 3-day treatment, the animals were sacrificed, and the ventral prostates and seminal vesicles were collected and weighed. Organ weight data were normalized to body weight of each animal and expressed as mg/100 g body weight. Results were analyzed by analysis of variance followed by the Dunnett's test. Data were transformed to comply with the normality and variance homogeneity criteria required to utilize the analysis of variance and Dunnett's test. The following data transformations were used for the ventral prostate and seminal vesicle: square root and power 0.7 respectively. Thereafter, the data were fitted to a four-parameter logistic equation and potencies derived from the fitted estimates. The same data transformations were used for the equation-fitting phase of the data analysis.
The gain and loss of sexual organ weights reflect the changes of cell number (DNA content) and cell mass (protein content), depending upon the serum androgen concentrations. […] Therefore, measurement of organ wet weights is sufficient to indicate the bioactivity of androgens and androgen antagonists.

[4] abbreviates: oral, 3 days, four-parameter logistic fit, number of experiments in parentheses, read-out: Potency (ED50) Weighted Average ± SE, Seminal Vesicle Weight.
Setting [5] is: oral, 3 days, four-parameter logistic fit, number of experiments in parentheses, read-out: Potency (ED50) Weighted Average ± SE, Ventral Prostate Weight.
The mark [6] stands for this setting: T implant + 0.1 mg/kg oral, 3 days.
Setting [7] is: T implant + 1 mg/kg oral, 3 days.
[8] abbreviates: T implant + 3 mg/kg oral, 3 days.
[9] abbreviates: T implant + 10 mg/kg oral, 3 days.
The mark [10] stands for this setting: T implant + 30 mg/kg oral, 3 days.
The mark [11] stands for this setting: T implant + 100 mg/kg oral, 3 days.
[12] abbreviates: agonist mode, percent maximal response relative to reference agonist DHT, na = not active (efficacy < 10 and potency > 10,000).

By Ki is commonly meant a measure of affinity in units of concentration, obtained from inhibition or displacement. As for `Cn1c(=O)c(F)c(C(F)(F)F)c2cc3c(cc21)NC(C)(C)CC3` [Compound 107, 7-Fluoro-1,2,3,4-tetrahydro-2,2,9-trimethyl-6-trifluoromethyl-8-pyridono[5,6-g]quinoline], on human AR [1], the “AR Antagonist CV-1 Cells Efficacy” value was 83 ± 3% and the IC50 was 38 ± 10 nM. For the same compound, on human AR [2], the Ki came to 110 ± 42 nM.

On to `Cn1c(=O)cc(C(F)(F)F)c2cc3c(cc21)N(O)C(C)(C)CC3` [Compound 119, 1,2,3,4-Tetrahydro-1-hydroxy-2,2,9-trimethyl-6-trifluoromethyl-8-pyridono[5,6-g]quinoline], for which, on human AR [1], the “AR Antagonist CV-1 Cells Efficacy” value stood at 40 ± 12% and the IC50 was found to be 1570 ± 1050 nM. For the same compound, at human AR [2], the Ki came out at 74 ± 29 nM.

For the compound `CCC1CCN(C(C)=O)c2cc3[nH]c(=O)cc(C(F)(F)F)c3cc21` (racemic) [Compound 123, (R/S)-1-Acetyl-4-ethyl-1,2,3,4-tetrahydro-6-(trifluoromethyl)-8-pyridono[5,6-g]quinoline], at human AR [1], the “AR Agonist CV-1 Cells Efficacy” value was found to be 91 ± 17% and the EC50 is 31 ± 2 nM. Also, the Ki at human AR [2] was 87 nM.

Usually ED50 stands for the dose that gives a 50% effect, or the effect in half of the subjects. As to `CC1(C)CCc2cc3c(C(F)(F)F)cc(=O)[nH]c3cc2N1` [LG120907, 1,2,3,4-Tetrahydro-2,2-dimethyl-6-trifluoromethyl-8-pyridono[5,6-g]quinoline], the ED50 in experiment [3] (setting [4]) amounted to 19.2 ± 2.8 mg/kg; in experiment [3] (setting [5]), 18.3 ± 4.8 mg/kg. Besides, the “Seminal Vesicles weight” value in experiment [3] (setting [6]) is given as 32.9 ± 1.2 (5) mg/100 g body weight; in experiment [3] (setting [7]), 28.9 ± 1.4 (5) mg/100 g body weight; in experiment [3] (setting [8]) it was 31.7 ± 2.9 (5) mg/100 g body weight; in experiment [3] (setting [9]) it was 28.2 ± 1.8 (5) mg/100 g body weight; in experiment [3] (setting [10]), 16.5 ± 0.8 (5) mg/100 g body weight; in experiment [3] (setting [11]), 10.4 ± 1.0 (5) mg/100 g body weight. The “Ventral Prostate weight” value is given as 78.5 ± 2.0 (5) mg/100 g body weight in experiment [3] (setting [6]); 57.3 ± 1.8 (5) mg/100 g body weight in experiment [3] (setting [7]); 66.4 ± 5.6 (5) mg/100 g body weight in experiment [3] (setting [8]); 59.9 ± 2.7 (5) mg/100 g body weight in experiment [3] (setting [9]); 47.4 ± 2.9 (5) mg/100 g body weight in experiment [3] (setting [10]); 20.2 ± 2.0 (5) mg/100 g body weight in experiment [3] (setting [11]).

Consider `CC1=CC(C)(C)Nc2cc3[nH]c(=O)c(F)c(C(F)(F)F)c3cc21` [Compound 111, 7-Fluoro-1,2-dihydro-2,2,4-trimethyl-6-trifluoromethyl-8-pyridono[5,6-g]quinoline], for which, at human AR [1], the “AR Agonist CV-1 Cells Efficacy” value worked out at 16 ± 2%, the “AR Antagonist CV-1 Cells Efficacy” value worked out at 53 ± 5%, the EC50 was 227 ± 59 nM and the IC50 stood at 43 ± 8 nM. Also, the “AR activity profile (in words)” value on human AR [1] is “mixed AR agonists/antagonists”. At human AR [2], the Ki is 12 nM.

As to `CC1CC(C)(C)n2oc(=O)c3c4[nH]c(=O)cc(C(F)(F)F)c4cc1c32` (stereo not shown) [Compound 113, 1,10-[1,3-dihydro-3-oxo-(2,1-isoxazolyl)]-1,2,3,4-tetrahydro-2,2,4,10-tetramethyl-6-trifluoromethyl-8-pyridono[5,6-g]quinoline], the EC50 on human AR [1] (agonist mode, na = not active (efficacy < 10 and potency > 10,000)) was determined as 245 nM. For the same compound, the “AR Agonist CV-1 Cells Efficacy” value on human AR [1] (setting [12]) was 31%. Moreover, on human AR [1], the “AR Antagonist CV-1 Cells Efficacy” value was 48% and the “AR activity profile (in words)” value is given as “mixed AR agonists/antagonists”. The Ki at human AR [2] stood at 10 nM.

For the compound `CCC1CCN(C(=O)C(F)(F)F)c2cc3[nH]c(=O)cc(C(F)(F)F)c3cc21` (racemic) [Compound 122, (R/S)-4-Ethyl-1,2,3,4-tetrahydro-1-(trifluoroacetyl)-6-(trifluoromethyl)-8-pyridono[5,6-g]quinoline], the “AR Agonist CV-1 Cells Efficacy” value on human AR [1] (setting [12]) turned out to be 100 ± 17%. The EC50 on human AR [1] was 3 nM. In addition, on human AR [2], the Ki came to 7 ± 2 nM.

As to `CC(C)C(=O)Nc1ccc([N+](=O)[O-])c(C(F)(F)F)c1` [Flutamide, 2-methyl-N-[4-nitro-3-(trifluoromethyl)phenyl]propanamide], the median effective dose (ED50) came to 3.3 ± 0.4 mg/kg in experiment [3] (setting [4]) and 4 ± 0.6 mg/kg in experiment [3] (setting [5]). Also, the “Seminal Vesicles weight” value in experiment [3] (setting [6]) is 31.1 ± 0.9 (5) mg/100 g body weight; in experiment [3] (setting [7]), 27.9 ± 2.5 (5) mg/100 g body weight; in experiment [3] (setting [8]), 22.7 ± 0.9 (5) mg/100 g body weight; in experiment [3] (setting [9]), 12.4 ± 1.8 (5) mg/100 g body weight; in experiment [3] (setting [10]) it was 9.1 ± 1.3 (5) mg/100 g body weight; in experiment [3] (setting [11]), 9.9 ± 0.4 (5) mg/100 g body weight. In addition, the “Ventral Prostate weight” value in experiment [3] (setting [6]) was 78.9 ± 3.5 (5) mg/100 g body weight; in experiment [3] (setting [7]), 73.1 ± 4.6 (5) mg/100 g body weight; in experiment [3] (setting [8]), 62.4 ± 3.7 (5) mg/100 g body weight; in experiment [3] (setting [9]), 43.0 ± 3.6 (5) mg/100 g body weight; in experiment [3] (setting [10]), 28.4 ± 3.1 (5) mg/100 g body weight; in experiment [3] (setting [11]), 29.9 ± 1.8 (5) mg/100 g body weight. Besides, the “effect on ventral prostate and seminal vesicle weights (in words)” value in experiment [3] was “dose-dependent decrease”.

As for `CC(O)(CS(=O)(=O)c1ccc(F)cc1)C(=O)Nc1ccc(C#N)c(C(F)(F)F)c1` (stereo not shown) [Casodex], the ED50 amounted to 7.8 ± 0.9 mg/kg in experiment [3] (po, read-out: Potency (ED50) Weighted Average ± SE, Seminal Vesicle Weight) and 7 ± 0.9 mg/kg in experiment [3] (po, read-out: Potency (ED50) Weighted Average ± SE, Ventral Prostate Weight). For the same compound, the “effect on ventral prostate and seminal vesicle weights (in words)” value in experiment [3] is on record as “dose-dependent decrease”.
